This is an account of results in a melting point compilation (Tetko et al.; mined from patent text by program, amines drawn as free bases though some values may be those of a salt).

What is called melting point is the temperature of the solid-liquid transition. `CN1c2ccccc2Sc2cc(C=Cc3ccc(-c4ccc(C=Cc5ccc6c(c5)Sc5ccccc5N6C)cc4)cc3)ccc21` yielded a melting point of 380 °C.
On to `CC(C)(C)c1ccc2c(c1)CCC(CN1CCCCC1)C2=O` (centres undefined), for which the melting point was 47 to 49 °C.
The same measure for `CCN1C[C@@H](O)[C@H](Sc2ccccc2Cl)C1` (relative stereo): 90.5 to 92.5 °C; for `CN1C(=S)NC(=O)C1=Cc1cc(C(C)(C)C)c(O)c(C(C)(C)C)c1`: 242 to 244 °C.
As for `CNC1CCN(c2nc3c(cc2F)c(=O)c(C(=O)O)cn3C2CC2)C1` (centres undefined), the melting point was in the range of 233 to 235 °C.
For `OCCC#Cc1cnc2ccccc2c1`, the melting point lay in the range of 95.7 to 96.7 °C.
With `C#CC(C)(C)N1CCC(N2CCN(CCCN3CCCCC3)C2=C(C#N)C#N)CC1`, the melting point was in the range of 112 to 115 °C.
Molecule `O=C(Nc1ccc(OC(F)(F)F)c(Br)c1)C(F)(F)F` showed a melting point of 64 to 66 °C.
The same measure for `COc1ccc(-c2ccncc2OC2SCC(OC(C)=O)C(OC(C)=O)C2OC(C)=O)cc1` (centres undefined): 193 °C; for `COCOc1cccc(-c2ccc(-c3ccc(C(=O)O)cc3)cc2-c2ccc3c(c2)C(C)(C)CCC3(C)C)c1`: 103 to 104 °C.
Under `CCOc1cc2c(cc1O)C(=O)CC(C)(C)O2` stands 129 to 130 °C.
`CCCCCCc1sc(C(N)=O)c2c1-c1nn(C)cc1CC2` came in with a melting point of 194 to 195 °C.
`COc1cc(Cc2cnc(N)nc2N)cc(OC)c1C(C)(C)O` showed a melting point of 183 to 185 °C.
The same measure for `CC(=O)c1cccc(-c2cnn3c(-c4cccc(NC(=O)CC(C)C)c4)ccnc23)c1`: 190 to 192 °C; for `O=c1[nH]c2ccc(I)cc2cc1[N+](=O)[O-]`: 279 to 282 °C; for `O=C(CC1(c2ccccc2)CC1)C(=O)Nc1ccc2c(c1)COC2=O`: 132 to 138 °C.
As to `N#Cc1c(OCCO)nc(CCO)nc1N1CCc2ccccc2CC1`, the melting point lay within 118 to 120 °C.
Under `CC1(C)OCC(CBr)(CBr)CO1` stands 56 to 58 °C; under `Cc1cc2c(c(NC(C(N)=O)c3c(Cl)cccc3Cl)c1)C(=O)CC2` (centres undefined), 250 °C; under `CC(C)=C(c1ccc(C(=O)O)cc1)c1ccc2c(c1)C(C)(C)CCC2(C)C`, 204 to 206 °C.
The molecule `NC(=O)c1cnn(-c2ccc(Cl)cc2Cl)c1C(F)(F)F` yielded a melting point of 191 to 193 °C.
Take `O=C(Nc1cccc(-c2ccnc3c(C(=O)c4cccs4)cnn23)c1)c1ccccc1`: the melting point is 211 to 213 °C.
In turn, `COC(=O)C1=C(C)NC2(O)COC(=O)C2C1c1cccc([N+](=O)[O-])c1` (centres undefined) gave a melting point of 147 to 149 °C.
The same measure for `CC(C)C1=C(C#N)C(c2ccccc2Br)c2c(n[nH]c2CC#N)N1` (centres undefined): greater than 250 °C.
The molecule `C=CCn1cc(Br)cnc1=O` gave a melting point of 142 to 143 °C.
Under `CN1C(=O)C(C)(C)C(=O)N(C)c2cc([N+](=O)[O-])ccc21` stands 224 to 225 °C.
In turn, `CCN(CC)CCn1cc2c(c1)-c1ccc(Cl)cc1C(c1ccccc1Cl)=NC2` had a melting point of 130 to 131 °C.
In turn, `Oc1cccc(-c2nc(COc3ccc(CCCn4ccnc4)cc3)co2)c1` gave a melting point of 164 to 165 °C.
Under `NC(=O)C1CCc2c(sc3cc(F)ccc23)C1` (centres undefined) stands 184 to 185 °C; under `c1ccc(Pc2ccccc2)cc1`, 128 to 131 °C.
Molecule `Cc1nc2ccccc2c(=O)n1-c1ccccc1C#N` showed a melting point of 165 to 166 °C.
The same measure for `CC(CC(=O)c1ccccc1)C(=O)N1CSCC1C(=O)O` (centres undefined): 182 to 183 °C; for `Cc1c(-c2ccc(F)cc2)oc2c(-c3ccc(F)cc3)c(-c3ccc(S(C)(=O)=O)cc3)nn12`: 257 to 259 °C.
The molecule `Clc1cc(Cl)cc(-c2cc[nH]n2)c1` returned a melting point of 156 °C.
The molecule `CSCCOc1c(-c2ccc(S(C)(=O)=O)cc2)cnn(CC(F)(F)F)c1=O` returned a melting point of 103 to 105 °C.
`NC(=O)[C@@H]1[C@H](Nc2ccnc3[nH]c(-c4ccc(CN5CCOCC5)cc4)nc23)[C@H]2C=C[C@@H]1C2` returned a melting point of 240 to 244 °C.
Under `O=S(=O)(NCCC(F)=C(F)F)c1ccc(C(F)(F)F)cc1` stands 68 to 70 °C; under `CCOCCCCC(=S)c1ccc(C)cc1`, 62 to 63.5 °C.
The same measure for `CCCNC(=O)Nc1ccccc1Nc1ccc(C(=O)c2ccccc2)cc1`: 167 to 169 °C; for `CCOC(=O)c1ncn(-c2nncs2)c1S(=O)(=O)NC(=O)Nc1nc(OC)cc(OC)n1`: 169 to 171 °C; for `O=C(O)CCc1ccc(NS(=O)(=O)c2ccc(Cl)cc2)cn1`: 144 to 146 °C.
The same measure for `CN1CCC(=C2c3ccccc3C=Cc3ccc(Br)cc32)CC1`: 189 to 190 °C; for `COc1cc(CCCO)ccc1OCc1nc(-c2ccco2)oc1C`: 99 to 100 °C; for `CCOC(=O)Cc1c(C)n(-c2ncnc3cc(Cl)ccc23)c2ccc(OC)cc12`: 103 to 105 °C.
`COc1ccc(OCCCCCCc2c(C)n[nH]c2O)c(Cl)c1`: the melting point was in the range of 145 to 146 °C.
`Oc1cccc2c1CCCC2n1cc[nH]c1=S` (centres undefined) displayed a melting point of 188 to 190 °C.
The same measure for `CC1(C2CCC3C4CCC5CC(CC(=O)O)CCC5(C)C4CCC32C)OCCO1` (centres undefined): 164 to 167 °C; for `Cc1[nH]c2ccc(F)cc2c1C(=O)Nc1ccc(Oc2ccccc2)c(C#N)c1`: 237 °C; for `O=c1cc(C(F)(F)F)cnn1-c1c(F)cc(Cl)c(O)c1[N+](=O)[O-]`: 146 to 148 °C.
In turn, `O=S(=O)(Nc1ccc2c(OCc3coc(-c4ccc(C(F)(F)F)cc4)n3)cccc2c1)C(F)(F)F` showed a melting point of 205 to 207 °C.
The molecule `O=c1[nH]c2cc(Cl)ccc2c(=O)c2c(C(F)(F)F)n[nH]c12` yielded a melting point of 334 to 336 °C.
On to `COc1cc(O)c(C(=O)C=Cc2cccn2C)c(OC)c1`, for which the melting point was determined as 140 °C.
As for `CCCc1nc(N)nc(N)c1N1CCNCC1`, the melting point was 175 to 176 °C.
The same measure for `COc1ccc2cccc3c2c1C(CC(=O)O)CC3` (centres undefined): 147 °C; for `CC(C)n1c(=O)nc(-c2ccc3c(c2)OCO3)c2cc3c(cc21)OCO3`: 125 to 127 °C.
The molecule `CC1(C)Oc2ccc(C#N)cc2[C@@H](NC(=O)c2cscc2-n2cccc2)[C@@H]1O` gave a melting point of 174 to 175 °C.
Under `CNC(=S)C1(c2cccc(C)n2)CCCS1` (centres undefined) stands 121 °C.
On to `N#CC=Cc1cccc(Br)c1`, for which the melting point was 62 °C.
`C=CCc1c(O)cc(O)c(C)c1C(=O)OC` showed a melting point of 72 to 95 °C.
For `CCn1c(=O)[nH]c2cnc(-c3ccccc3)nc21`, the melting point fell in the range of 268 to 270 °C.
The same measure for `CCc1cc(OCc2ccccc2)ccc1C(=O)NNC(=O)Cc1cccc(O)c1`: 190 to 191 °C.
`CC(=O)Nc1cc(CO)ccn1` displayed a melting point of 145 °C.
The same measure for `CCOP1(=O)OCC(C)(C)c2cc(OS(C)(=O)=O)ccc2O1` (centres undefined): 113 to 115 °C; for `CCOC(=O)c1c(C)nc(NN=C(C)C)c2nnn(CC)c12`: 68 to 72 °C.
As for `Cc1c(C(=O)Nc2ccc(N3CCN(C)CC3)c(C#N)c2)cnn1-c1ccc(F)cc1`, the melting point was in the range of 205 to 207 °C.
`N#Cc1ccc2nc(C(=O)NCc3cccc(CNC(=O)c4nc[nH]n4)c3)[nH]c(=O)c2c1` came in with a melting point of 218 to 219 °C.
The same measure for `Cc1ccc(Cc2nc3c(nnn3C(C)CCCc3ccccc3)c(=O)[nH]2)cc1` (centres undefined): 130 °C; for `CC(C)=C1CNc2ccc(O)cc21`: 175 to 178 °C.
Under `O=C(NCCCCC(NS(=O)(=O)c1ccc2oc3ccccc3c2c1)C(=O)O)OCc1ccccc1` (centres undefined) stands 133 to 135 °C.
As to `COc1ccc(C(=O)Nc2ccc(F)c(F)c2)cc1NCc1cccc(C(=O)O)c1`, the melting point fell in the range of 240 to 243 °C.
In turn, `CCCCc1nc2cccc(C(=O)OC)c2n1Cc1ccc(-c2ccccc2-c2nc(=S)o[nH]2)cc1` registered a melting point of 180 to 181 °C.
The molecule `CC(C)(C)C(=O)Nc1nc(O)c2cc(C=CCOC3CCCCO3)cnc2n1` (centres undefined) gave a melting point of 166 to 167 °C.
Under `CC(C)n1c(NN)nc2ccccc2c1=O` stands 123 to 124 °C; under `Nc1c2c(=O)[nH]c(C(F)(F)F)nc2nn1-c1ccccc1`, 267 to 269 °C; under `COc1cc2c(Nc3ccc(Sc4nccn4C)c(Cl)c3)c(C#N)cnc2cc1OCCN1CCC(N2CCCC2)CC1`, 127 to 130 °C.
As for `CC1CC(=O)N(CCCCN2CCN(c3ncccn3)CC2)S(=O)(=O)N1` (centres undefined), the melting point lay within 115 to 117 °C.
The same measure for `Cc1ccc(S(=O)(=O)N2CCCC2c2ccco2)cc1` (racemic): 58 °C.
The same measure for `CON=C(Nc1nc(C)cc(C)n1)NS(=O)(=O)c1ccccc1-c1ccccc1`: 190 to 192 °C.
Under `COC(=O)c1cc(Cl)c(N=C2NCCN2)c(Cl)c1` stands 229 to 231 °C; under `c1ccc2c(NC3CCCC3)nnc(Cc3ccncc3)c2c1`, 163 to 165 °C.
With `COc1ccc(COC(=O)c2cc(Br)nn2-c2ncccc2Cl)cc1`, the melting point is 83 °C.
`O=C1N(Cc2ccc(NC3CCNC3)cc2)c2ccccc2C12COc1cc3c(cc12)OCO3` (centres undefined) had a melting point of 118 to 121 °C.
Under `CON=C1CN(c2c(F)cc3c(=O)c(C(=O)O)cn(C4CC4)c3c2Cl)CC12CNC2` stands 220 to 221 °C.
Under `CS(=O)(=O)c1ccc(Oc2ccc(Cl)cc2)cc1` stands 109 to 111 °C.
The same measure for `CCC(=S)NC[C@H]1CN(c2ccc(N3CCN(C(=O)COc4ccc(CN5CCOCC5)cc4)CC3)c(F)c2)C(=O)O1`: 159 to 160 °C.
`CC1(C)CCC(C)(C)c2cc(-c3csc(C=O)c3)ccc21` showed a melting point of 84 to 85 °C.
As for `CC(=O)N1CCC(c2nn(-c3ccccc3)c3cc(Cl)ccc23)CC1`, the melting point was in the range of 130 to 132 °C.
The same measure for `CC(=O)N1CCC(Br)(C(=O)c2ccc(F)cc2)CC1`: 156 to 159 °C; for `CC(C)(C)C(NC(=O)CCc1ccccc1)Nc1c(Nc2cccnc2)c(=O)c1=O` (centres undefined): 219 to 220 °C.
